Laboratory results: patent US20170209447A1, “Use of PNP Inhibitor to Treat Relapse of Malignancy after Hematopoietic Stem Cell Transplant” (Nitor Therapeutics, priority 2014, published 2017)

What was measured:
[1] = tested on: B16 tumors; test: PNPi as anticancer agent in mouse melanoma model; format: in vivo, C57BL/6 mice; details: cyclophosphamide 100 mg/kg IP single dose; FIG. 6
Experimental: Evaluation of PNPi as Anticancer Agent in Mouse Melanoma Model.
Treatment with the NTR001 was initiated on day 6 after injection of tumor cells. Tumor volume and survival were recorded every 3-4 days.

[2] = tested on: tetanus toxoid vaccine; test: PNPi as adjuvant in tetanus toxoid vaccine efficacy study (tetanus toxoid mouse model); format: in vivo, mice; details: compared to vehicle treated group
Experimental: This Example Evaluates PNPi as an Adjuvant in Tetanus Toxoid Vaccine Efficacy Study.
Method: Tetanus toxoid (TT) was used to vaccinate mice thrice, two weeks apart. Mice were treated by oral administration of compounds NTR001 and NTR002 and serum was collected at various time points for antibody titer and interferon-g analysis. Mice in Groups 2-6 (Table 2) are vaccinated subcutaneously with 0.1 ml tetanus toxoid vaccine on DAYS 0, 14 and 28. Mice in Group 1 (Table 1) received no vaccine. Antibody titers for DAYS 38 are determined by ELISA using tetanus toxoid coated microtiter plates and anti-mouse conjugate. Sera from DAY 30 are assayed by ELISA for interferon-g.

[3] = tested on: L. monocytogenes (ATCC Strain35152, hemolytic substrain); details: 30 mg/kg PO or IP, or 2 mg/kg drinking water; 1×10^6 CFU i.v.; FIGS. 7 and 9
[4] = molecular target: T1, human TLR2 (Homo sapiens, UniProt O60603); test: TLR ligand screening: NF-κB SEAP reporter in HEK293 cells expressing TLR2; format: cell-based; details: FIG. 2
T1 construct: expressed in transfected cells; host or cells: HEK293
Experimental: (§1) Toll-Like Receptor (TLR) Ligand Screening: In-vitro Activity of the PNPi, Guanosine and Inosine on Seven Different Human TLRs (TLR2, 3, 4, 5, 7, 8 and 9) as a Potential Agonist.
(§2) Method: TLR stimulation is tested by assessing NF-KB activation in HEK293 cells expressing a given TLR. The Secreted Embryonic Alkaline Phosphatase (SEAP) reporter is under the control of a promoter inducible by the transcription factor NF-κB.
(§3) This reporter gene allows the monitoring of signaling through the TLR, based on the activation of NF-κB. The compounds are evaluated at one concentration and compared to control ligands. This step is performed in triplicate.

[5] = molecular target: T2, human TLR4 (Homo sapiens, UniProt O00206); test: TLR ligand screening: NF-κB SEAP reporter in HEK293 cells expressing TLR4; format: cell-based; details: FIG. 2
T2 construct: expressed in transfected cells; host or cells: HEK293
Experimental: as §1, §2, §3

[6] = Guanosine 100 uM in combination with NTR001 (10 uM) and/or Inosine (100 uM)
[7] = one concentration: Guanosine 100 uM, NTR001 10 uM, Inosine 100 uM, HEK293, triplicate

T1 sequence (O60603 21-784): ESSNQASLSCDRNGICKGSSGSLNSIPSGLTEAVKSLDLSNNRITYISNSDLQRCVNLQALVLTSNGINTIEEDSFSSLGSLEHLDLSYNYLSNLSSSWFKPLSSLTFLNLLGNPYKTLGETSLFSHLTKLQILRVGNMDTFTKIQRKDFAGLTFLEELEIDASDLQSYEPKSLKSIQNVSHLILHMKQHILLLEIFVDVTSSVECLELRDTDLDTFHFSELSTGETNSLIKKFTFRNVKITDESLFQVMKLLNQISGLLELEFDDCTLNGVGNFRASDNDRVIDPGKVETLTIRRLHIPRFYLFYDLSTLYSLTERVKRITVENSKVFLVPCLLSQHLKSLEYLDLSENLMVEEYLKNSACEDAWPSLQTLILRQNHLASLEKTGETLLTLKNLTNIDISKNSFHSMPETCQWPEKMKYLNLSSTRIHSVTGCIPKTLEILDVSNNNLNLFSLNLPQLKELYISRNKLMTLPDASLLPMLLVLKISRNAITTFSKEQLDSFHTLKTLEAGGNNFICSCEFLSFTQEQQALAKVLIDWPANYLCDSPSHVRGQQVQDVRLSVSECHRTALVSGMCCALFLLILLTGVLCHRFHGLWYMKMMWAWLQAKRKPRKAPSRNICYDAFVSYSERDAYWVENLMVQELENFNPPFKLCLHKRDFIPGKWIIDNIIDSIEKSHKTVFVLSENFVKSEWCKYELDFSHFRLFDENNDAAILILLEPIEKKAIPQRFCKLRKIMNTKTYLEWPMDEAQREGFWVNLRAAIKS
T2 sequence (O00206 24-839): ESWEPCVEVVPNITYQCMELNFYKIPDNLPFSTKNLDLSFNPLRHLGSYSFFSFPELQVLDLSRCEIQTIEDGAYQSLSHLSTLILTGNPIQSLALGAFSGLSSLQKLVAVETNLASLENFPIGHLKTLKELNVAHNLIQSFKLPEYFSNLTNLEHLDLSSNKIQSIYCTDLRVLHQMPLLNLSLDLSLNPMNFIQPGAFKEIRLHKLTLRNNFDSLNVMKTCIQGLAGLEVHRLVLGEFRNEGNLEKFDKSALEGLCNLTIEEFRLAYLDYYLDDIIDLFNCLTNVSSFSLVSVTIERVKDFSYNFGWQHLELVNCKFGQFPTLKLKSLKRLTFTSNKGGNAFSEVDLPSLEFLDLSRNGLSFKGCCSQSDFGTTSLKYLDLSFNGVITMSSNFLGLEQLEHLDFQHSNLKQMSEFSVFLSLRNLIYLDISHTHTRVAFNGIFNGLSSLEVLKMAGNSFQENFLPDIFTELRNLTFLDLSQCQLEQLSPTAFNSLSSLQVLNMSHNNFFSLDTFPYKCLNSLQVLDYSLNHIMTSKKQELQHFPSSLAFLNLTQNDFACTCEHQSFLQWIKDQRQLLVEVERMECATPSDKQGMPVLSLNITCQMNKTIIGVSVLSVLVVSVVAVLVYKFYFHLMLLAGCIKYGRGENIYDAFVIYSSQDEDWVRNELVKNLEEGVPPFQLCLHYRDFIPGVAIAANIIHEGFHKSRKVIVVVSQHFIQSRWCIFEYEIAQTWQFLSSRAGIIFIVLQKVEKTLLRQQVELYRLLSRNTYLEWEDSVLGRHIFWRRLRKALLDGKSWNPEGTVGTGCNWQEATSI
T2 sequence (Q9Y6Y9 17-160 partner limits assumed): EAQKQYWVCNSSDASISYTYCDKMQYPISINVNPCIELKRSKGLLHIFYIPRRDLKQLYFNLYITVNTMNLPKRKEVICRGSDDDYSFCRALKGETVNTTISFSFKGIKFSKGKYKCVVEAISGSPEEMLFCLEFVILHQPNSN

O=P1(N(CCCl)CCCl)NCCCO1 (centres unmarked) [Cyclcophosphamide, cyclophosphamide, reference compound]
survival [1]: 30%

O=c1[nH]cnc2c(CN3C[C@H](CO)[C@@H](O)C3)c[nH]c12 [NTR002, 1,5-dihydro-7-[[(3R,4R)-3-hydroxy-4-(hydroxymethyl)pyrrolidin-1-yl]methyl]-4H-pyrrolo[3,2-d]pyrimidin-4-one]
serum interferon-g levels ([2]; day 30, ELISA, high dose group 60 mg/kg p.o., FIG. 4): elevated | serum tetanus toxoid antibody titers ([2]; day 38, ELISA, p.o. 30 mg/kg (6 days of treatment) and 60 mg/kg (3 days of treatment), FIG. 3): significantly elevated | weight loss [3]: significant decrease

Nc1nc2c(ncn2[C@@H]2O[C@H](CO)[C@@H](O)[C@H]2O)c(=O)[nH]1 [Guanosine, guanosine]
stimulatory effect on human TLR2 (NF-κB activation), combination [4, 6]: significant stimulatory effect | stimulatory effect on human TLR2 (NF-κB activation) [4, 7]: significant stimulatory effect | stimulatory effect on human TLR4 (NF-κB activation), combination [5, 6]: significant stimulatory effect | stimulatory effect on human TLR4 (NF-κB activation) [5, 7]: significant stimulatory effect
